Test [1] addresses T1, 5-HT2A (Rattus norvegicus, UniProt P14842).
T1 construct: Cerebral frontal cortex was homogenized in 10 volumes of ice cold 0.32 M sucrose; from tissue; host or cells: rat cerebral frontal cortex membranes
The test is described as follows: 5-HT2A Radioligand Receptor Binding Assay ([3H]-Ketanserin, cerebral frontal cortex membranes). The note with it: 0.5 nM [3H]-Ketanserin. On the procedure: 5-HT2A Radioligand Receptor Binding Assay
Rats (male Sprague-Dawley, 200-250 g) were used. Cerebral frontal cortex was homogenized in 10 volumes of ice cold 0.32 M sucrose in 5 mM Tris-HCl ([…]) buffer. After centrifugation of the homogenate (1,000×g for 10 minutes) the supernatant was then recentrifuged at 48,000×g for 15 minutes. The resulting pellet was gently homogenized in an equal volume of 50 mM Tris-HCl buffer (pH 7.4) and incubated at 37° C. for 10 minutes. Membranes were then collected by centrifugation as above described and finally resuspended in 10 volumes of 50 mM Tris-HCl buffer (pH 7.4).
For displacement experiments membranes (980 μl) were diluted in 50 mM Tris-HCl buffer (pH 7.4) to a final concentration of 1:100 (w/v); the tissue suspension was then incubated at 37° C. for 10 minutes in a final volume of 1 ml in the presence of 0.5 nM [^3H]-Ketanserin. Non-specific binding was determined by incubating similar samples with unlabelled methysergide (100 μM). After incubation, samples prepared in a 24 wells cell culture cluster (Costar) were rapidly filtered by Inotech Cell Harvester (IH 201 filters). The filters were washed three times with 2 ml ice-cold Tris-HCl buffer and placed in polyethylene vials, then 4 ml of Filter Count scintillation cocktail (Packard) were added. The radioactivity present was counted by liquid scintillation spectrometry.
The affinity values (IC50) for the compounds were obtained by a nonlinear least squares regression analysis on the basis of a one binding site model.

The target of test [2] is 5-HT2A (Mus musculus, UniProt P35363). Kind of test: 5-HT2 Functional Assay (PI Turnover) in cerebral cortex miniprisms. The class given is biochemical. The note with it: 10 μM compound, inhibition of PI turnover accumulation induced by 100 μM 5-HT. The method, then:
5-H T2 Functional Assay (PI Turnover)
Cross-chopped miniprisms (350×350 μm) were prepared from mouse whole cerebral cortices and incubated for 60 minutes at 37° C. in Krebs-Henseleit buffer containing 2 g/l glucose.
Cerebral cortex miniprisms were distributed in vials and incubated for 30 minutes with approximately 170 nM [^3H]-myoinositol (10-20 Ci/mmol) and […] lithium chloride. Samples were divided in different groups in triplicate: control, 100 μM 5-HT, 10 and 30 μM flibanserin+100 μM 5-HT, as standards, and 10 μM of the different compound under investigation+100 μM 5-HT. When 5-HT was added the incubation continued for 45 minutes. Compounds under investigation and flibanserin were added 10 minutes before dispensing 5-HT. Incubation was terminated by the addition of 940 μl chloroform-methanol (1:2 v/v). Further aliquots of chloroform (310 μl) and water (310 μl) were added and labeled inositol phosphates (1 Ps) were extracted from the aqueous phase by ion exchange chromatography using Dowex resin in the formate form. After addition of 10 ml of PicoFluor 40 scintillation cocktail (Packard), the radioactivity present in an aliquot (400 μl) of the aqueous extract was counted by liquid scintillation spectrometry.

The target in another test is T2, 5-HT1A (Homo sapiens, UniProt P08908).
T2 sequence (P08908 1-422): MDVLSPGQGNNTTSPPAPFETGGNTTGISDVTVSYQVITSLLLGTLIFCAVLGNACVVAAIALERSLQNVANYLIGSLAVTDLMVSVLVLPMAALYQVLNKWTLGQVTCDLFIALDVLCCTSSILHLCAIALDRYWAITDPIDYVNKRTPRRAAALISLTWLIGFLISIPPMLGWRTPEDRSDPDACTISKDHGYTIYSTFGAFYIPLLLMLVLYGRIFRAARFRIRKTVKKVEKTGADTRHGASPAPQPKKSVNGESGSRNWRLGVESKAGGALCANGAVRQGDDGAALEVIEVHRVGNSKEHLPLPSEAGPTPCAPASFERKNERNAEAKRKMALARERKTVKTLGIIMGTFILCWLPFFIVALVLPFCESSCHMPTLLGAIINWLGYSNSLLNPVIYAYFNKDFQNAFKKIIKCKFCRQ
Kind of test: 5HT1A Radioligand Receptor Binding Assay ([3H]-8-OH-DPAT, CHO cell membranes). To be noted: CHO membranes, human 5-HT1A. On the set-up: expressed in transfected cells; host or cells: CHO cells. Put shortly:
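CHO-cell membranes expressing human 5-HT1A incubated with [3H]-8-OH-DPAT (0.6-0.7 nM) for 60 minutes at 27° C, filtered and scintillation counted; non-specific binding defined with 10^−5 M 5-HT. Compounds tested singly at 10^−7 M as % of control specific binding; IC50 from one-site nonlinear regression.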

Each structure is given as a SMILES string.

Sequence of 5-HT2A (Mus musculus, UniProt P35363) (P35363 whole entry, looked up): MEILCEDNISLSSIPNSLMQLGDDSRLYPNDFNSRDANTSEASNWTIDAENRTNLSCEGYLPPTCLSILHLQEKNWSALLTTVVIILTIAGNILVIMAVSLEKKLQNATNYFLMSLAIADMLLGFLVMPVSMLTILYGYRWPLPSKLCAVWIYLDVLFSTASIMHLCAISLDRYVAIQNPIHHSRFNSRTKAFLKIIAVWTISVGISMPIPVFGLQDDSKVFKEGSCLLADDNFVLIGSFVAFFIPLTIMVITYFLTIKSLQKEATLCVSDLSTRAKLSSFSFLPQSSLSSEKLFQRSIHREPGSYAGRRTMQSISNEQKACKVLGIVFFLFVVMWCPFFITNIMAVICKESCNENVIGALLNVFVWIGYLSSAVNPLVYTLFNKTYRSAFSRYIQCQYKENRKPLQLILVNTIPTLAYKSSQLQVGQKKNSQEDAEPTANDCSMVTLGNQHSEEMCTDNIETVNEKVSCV
T1 sequence (P14842 whole entry): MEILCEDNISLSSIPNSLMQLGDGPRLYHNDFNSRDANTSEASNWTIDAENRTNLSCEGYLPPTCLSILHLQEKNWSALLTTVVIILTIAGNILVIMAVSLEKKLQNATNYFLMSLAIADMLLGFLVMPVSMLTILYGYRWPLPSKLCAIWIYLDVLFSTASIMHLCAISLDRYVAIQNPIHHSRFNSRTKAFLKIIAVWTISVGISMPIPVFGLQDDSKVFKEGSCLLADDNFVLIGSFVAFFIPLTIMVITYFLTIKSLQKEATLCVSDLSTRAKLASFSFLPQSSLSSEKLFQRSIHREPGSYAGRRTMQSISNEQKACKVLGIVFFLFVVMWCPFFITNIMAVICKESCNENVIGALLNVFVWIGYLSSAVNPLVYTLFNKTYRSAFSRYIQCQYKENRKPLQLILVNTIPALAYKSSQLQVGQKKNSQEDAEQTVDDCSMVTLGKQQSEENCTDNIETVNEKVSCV

For orientation: IC50 means the midpoint of a concentration-inhibition curve. What is called inhibition is the change of the read-out against control, counted positive when it falls. Lower therefore signals little suppression. Regarding `CCNC(=O)OCCn1c(=O)n(CCN2CCN(c3cccc(C)c3C)CC2)c2ccccc21` [Compound 215], the IC50 on 5-HT2A [1] was 3.2 nM; on 5-HT1A ([3H]-8-OH-DPAT, read-out: 5-HT1A Receptor Binding IC50), 0.85 nM. For the same molecule, the “5-HT2A PI Turnover % inhibition” value on 5-HT2A [2] amounted to 83%. The molecule further displayed an inhibition at 0.1 µM on 5-HT1A (compound 10^−7 M, singlicate, [3H]-8-OH-DPAT 0.6-0.7 nM) of 98%.

For the origin of these results see patent US6521623B1, “N,N'-disubstituted benzimidazolone derivatives with affinity at the serotonin and dopamine receptors” (Boehringer Ingelheim Pharma KG, priority 2000, dated 2003).
